Measurements as given in patent US20240239801A1, “PYRIMIDO[5,4,D]PYRIMIDINE COMPOUNDS, COMPOSITIONS COMPRISING THEM AND USES THEREOF” (Université de Montréal, priority 2021, published 2024).
Read-outs that look alike come from different tables or passages of the source.

Tests used:
[1] = target: CRAF (Homo sapiens, UniProt P04049); test: CRAF kinase activity assay (ADP-Glo); assay type: biochemical; settings: Table 3
Method in brief: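 CRAF inhibition was measured by ADP-Glo. 0.375 nM purified GST-tagged CRAF was combined with 75 nM kinase-dead MEK1 substrate and 10 μM ATP in 50 mM HEPES pH 7.5, 10 mM MgCl2, 1 mM EDTA, 0.01% Brij-35 and 2 mM DTT, with nine compound concentrations from 100 nM to 0.01 nM (0.05% DMSO), in 384-well plates for 2 hours at 30° C. Luminescence was read after adding ADP-Glo and Kinase Detection reagents. IC50 came from four-parameter curve fits.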

[2] = target: T1, BRAF (Homo sapiens, UniProt P15056); test: BRAF kinase activity assay (ADP-Glo); assay type: biochemical; settings: Table 3
T1 construct: GST; purchased Millipore Sigma B4062-10UG
T1 sequence (P15056 whole entry): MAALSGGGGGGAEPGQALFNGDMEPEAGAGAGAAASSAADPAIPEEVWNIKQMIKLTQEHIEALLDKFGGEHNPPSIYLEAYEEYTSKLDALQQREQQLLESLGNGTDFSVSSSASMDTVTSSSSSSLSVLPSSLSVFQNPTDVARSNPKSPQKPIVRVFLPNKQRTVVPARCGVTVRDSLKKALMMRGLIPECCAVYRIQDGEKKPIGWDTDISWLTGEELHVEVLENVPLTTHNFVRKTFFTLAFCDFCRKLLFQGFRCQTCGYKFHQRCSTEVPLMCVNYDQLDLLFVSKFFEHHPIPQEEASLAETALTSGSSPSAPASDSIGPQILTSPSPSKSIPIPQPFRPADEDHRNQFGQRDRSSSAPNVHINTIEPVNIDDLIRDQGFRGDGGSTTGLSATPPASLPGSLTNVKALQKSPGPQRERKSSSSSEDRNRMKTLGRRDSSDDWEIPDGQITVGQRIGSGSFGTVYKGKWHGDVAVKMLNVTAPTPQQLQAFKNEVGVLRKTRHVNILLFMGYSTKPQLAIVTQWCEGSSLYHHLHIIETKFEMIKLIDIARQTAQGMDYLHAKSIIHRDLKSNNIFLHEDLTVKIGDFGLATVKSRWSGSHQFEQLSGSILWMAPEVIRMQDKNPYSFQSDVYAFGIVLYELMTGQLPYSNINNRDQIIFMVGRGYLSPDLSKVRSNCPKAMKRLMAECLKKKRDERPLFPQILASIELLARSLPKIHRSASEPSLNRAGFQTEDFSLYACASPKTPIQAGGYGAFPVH
Method in brief: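 GST-tagged BRAF (0.375 nM) was reacted with 75 nM kinase-dead MEK1 and 10 μM ATP for 2 h at 30 °C in HEPES pH 7.5 buffer with MgCl2, EDTA, Brij-35 and DTT. Compounds were tested at nine concentrations from 100 nM to 0.01 nM with 0.05% DMSO final. ADP-Glo luminescence gave % inhibition, and IC50 came from a four-parameter fit.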

[3] = test system: HCT116 pERK; test: Phospho-ERK inhibition, AlphaLISA SureFire Ultra p-ERK 1/2; assay type: cell-based, human; settings: for HCT116 pERK, value in parentheses, % inhibition: % Ymin of pERK IC50 curve; for HCT116 (Ymin %): lowest value of the pERK IC50 curve
Method in brief: (§1)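 IC50 derived by four-parameter fitting of % inhibition, with DMSO as 0% and 1 μM trametinib subtracted as background. Signal is AlphaLISA p-ERK1/2 (Thr202/Tyr204) in lysates of overnight-seeded cells (RPMI-1640, 5% FBS) treated 1 h with ten concentrations from 30 or 10 μM to 0.33 nM, 0.5% DMSO.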

[4] = test system: SW480 pERK; test: as above; assay type: cell-based, human; settings: for SW480 (Ymin %): lowest value of the pERK IC50 curve; for SW480 pERK, value in parentheses, % inhibition: % Ymin of pERK IC50 curve
Method in brief: as §1

[5] = Homo sapiens, HCT-116, Table D-1
[6] = Homo sapiens, SW480, Table D-2, read-out: SW480 pERK IC50
[7] = Table 3, 1 h treatment, read-out: SW480 PERK IC50
[8] = Table D-2, read-out: SW480 pERK IC50

CRAF, sequence (P04049 whole entry): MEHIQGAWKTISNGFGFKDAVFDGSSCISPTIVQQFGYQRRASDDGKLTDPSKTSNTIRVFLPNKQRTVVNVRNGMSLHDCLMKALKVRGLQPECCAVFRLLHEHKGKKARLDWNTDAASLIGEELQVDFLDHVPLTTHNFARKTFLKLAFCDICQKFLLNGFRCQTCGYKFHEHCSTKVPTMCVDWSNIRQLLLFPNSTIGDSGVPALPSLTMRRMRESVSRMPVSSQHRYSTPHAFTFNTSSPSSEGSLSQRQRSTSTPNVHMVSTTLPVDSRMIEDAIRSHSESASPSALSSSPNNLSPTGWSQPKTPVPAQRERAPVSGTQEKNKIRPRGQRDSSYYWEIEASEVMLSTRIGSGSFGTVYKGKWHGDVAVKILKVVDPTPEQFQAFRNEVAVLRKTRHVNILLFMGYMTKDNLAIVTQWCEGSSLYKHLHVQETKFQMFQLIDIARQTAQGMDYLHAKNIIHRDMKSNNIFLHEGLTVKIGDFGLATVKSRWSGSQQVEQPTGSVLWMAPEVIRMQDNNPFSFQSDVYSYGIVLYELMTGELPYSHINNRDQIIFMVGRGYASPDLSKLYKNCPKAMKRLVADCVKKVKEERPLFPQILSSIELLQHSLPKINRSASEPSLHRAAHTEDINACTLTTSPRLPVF

IC50 [1] [nM]	IC50 [2] [nM]	IC50 ([3]; Homo sapiens, HCT-116, Table 3, 1 h treatment) [nM]	IC50 [3, 5] [nM]	IC50 ([4]; Homo sapiens, SW480, Table 3, 1 h treatment, read-out: SW480 PERK IC50) [nM]	IC50 [4, 6] [nM]	IC50 ([3]; Table 3, 1 h treatment) [nM]	IC50 ([3]; Table D-1) [nM]	IC50 [4, 7] [nM]	IC50 [4, 8] [nM]	SMILES	HCT116 pERK, value in parentheses, % inhibition ([3]; Table D-1)	SW480 (Ymin %) ([4]; Table 3) [%]	SW480 pERK, value in parentheses, % inhibition ([4]; Table D-2)	HCT116 (Ymin %) ([3]; Table 3)
10 to 50	1 to 10	< 500	> 300	< 500	30 to 300	–	–	–	–	Cc1c(F)cccc1S(=O)(=O)Nc1ccc(F)c(Nc2ncnc3cnc(-n4cnc5c(-c6cccnc6)cccc54)nc23)c1F [Example 114]	(−4.9) %	2	(1) %	–
10 to 50	> 10	–	–	–	–	500 to 1000	> 300	< 500	30 to 300	COc1ccc(S(=O)(=O)Nc2ccc(F)c(Nc3ncnc4cnc(-n5cnc6c(N)cccc65)nc34)c2F)c(C)c1Cl [Example 112]	(−0.8) %	−7	(−7) %	−0.8%
–	–	–	30 to 300	–	30 to 300	–	–	–	–	Cc1ccc2c(Nc3cccc(Cl)c3F)nccc2c1NC(=O)c1csc2c(N)ncnc12 [Belvarafenib, reference compound]	(−46) %	–	(−100) %	–
10 to 50	< 1	–	–	–	–	–	30 to 300	< 500	30 to 300	Cc1c(F)cccc1S(=O)(=O)Nc1ccc(F)c(Nc2ncnc3cnc(-n4cc(C(=O)N(C)Cc5ccncc5)c5ccccc54)nc23)c1F [Example 98]	(−6.0) %	−1	(−1) %	(−6.0) %
< 10	< 1	–	–	–	–	< 500	–	< 500	–	Nc1cccc2c1ncn2-c1ncc2ncnc(Nc3c(F)ccc(NS(=O)(=O)c4cccc(Cl)c4Cl)c3F)c2n1 [Example 80]	–	−2	–	−7%
10 to 50	> 10	–	–	–	–	< 500	30 to 300	< 500	30 to 300	O=S(=O)(Nc1ccc(F)c(Nc2ncnc3cnc(-n4cnc5c(N6CCC7(CCCO7)CC6)cccc54)nc23)c1F)c1cccc(Cl)c1Cl [Example 129]	(−8) %	3	(3) %	−8%
